Experimental data reported in patent US20050234029A1, “Compounds” (priority 2002, published 2005).

tested on: not given; test: not given; conditions: not given

| SMILES | melting point |
| --- | --- |
| COc1ccc(-c2cc(-c3c(-c4cccc(C)n4)nc4ccccn34)ccn2)cc1 [Example 2, 3-[2-(4-methoxy-phenyl)-pyridin-4-yl]-2-(6-methyl-pyridin-2-yl)-imidazo[1,2-a]pyridine] | 174 °C |
| Cc1cccc(-c2nc3ccccn3c2-c2ccnc(-c3ccc(OC(F)(F)F)cc3)c2)n1 [Example 3, 2-(6-methyl-pyridin-2-yl)-3-[2-(4-trifluoromethoxy-phenyl)-pyridin-4-yl]-imidazo[1,2-a]pyridine] | 120 °C |
| CS(=O)(=O)c1ccc(-c2cc(-c3c(-c4ccccn4)nc4ccccn34)ccn2)cc1 [Example 5, 3-[2-(4-Methanesulfonyl-phenyl)-pyridin-4-yl]-2-pyridin-2-yl-imidazo[1,2-a]pyridine] | 242 to 244 °C |
| CC(=O)c1ccc(-c2cc(-c3c(-c4ccccn4)nc4ccccn34)ccn2)cc1 [Example 8, 3-[2-(4-(Acetyl)phenyl)-pyridin-4-yl]-2-(pyridin-2-yl)-imidazo[1,2-a]pyridine] | 214 °C |
| CC(=O)Nc1ccc(-c2cc(-c3c(-c4ccccn4)nc4ccccn34)ccn2)cc1 [Example 9, 3-[2-(4-(Methylcarbonylamino)phenyl)-pyridin-4-yl]-2-pyridin-2-yl-imidazo[1,2-a]pyridine] | 133 °C |
| CC(=O)Nc1ccc(-c2cc(-c3c(-c4cccc(C)n4)nc4ccccn34)ccn2)cc1 [Example 10, 3-[2-(4-(methylcarbonylamino)phenyl)-pyridin-4-yl]-2-(6-methyl-pyridin-2-yl)-imidazo[1,2-a]pyridine] | 257 °C |
| O=C(NC1CCOCC1)c1ccc(-c2cc(-c3c(-c4ccccn4)nc4ccccn34)ccn2)cc1 [Example 26, 3-[2-(4-((Tetrahydropyran-4-yl)aminocarbonyl)phenyl)-pyridin-4-yl]-2-pyridin-2-yl-imidazo[1,2-a]pyridine] | 179 °C |
| Cc1cccc(-c2nc3ccccn3c2-c2ccnc(-c3ccc(C(=O)NC4CCOCC4)cc3)c2)n1 [Example 27, 3-[2-(4-((tetrahydropyran-4-yl)aminocarbonyl)phenyl)-pyridin-4-yl]-2-(6-methyl-pyridin-2-yl)-imidazo[1,2-a]pyridine] | 128 °C |
| CCN1CCN(C(=O)c2ccc(-c3cc(-c4c(-c5cccc(C)n5)nc5c(C)cccn45)ccn3)cc2)CC1 [Example 32, 8-Methyl-2-(6-methyl-pyridin-2-yl)-3-{2-[4-((1-ethyl-piperazin-4-yl)carbonyl)phenyl]-pyridin-4-yl}-imidazo[1,2-a]pyridine] | 212 °C |

More lines, now with the values ahead:

| melting point | SMILES |
| --- | --- |
| 214 °C | Cc1cccc(-c2nc3ccccn3c2-c2ccnc(-c3ccc(C#N)cc3)c2)n1 [Example 4] |
| 60 °C | CS(=O)(=O)Nc1ccc(-c2cc(-c3c(-c4cccc(Cl)c4)nc4ccccn34)ccn2)cc1 [Example 11, 2-(3-chloro-phenyl)-3-[2-(4-(methanesulfonylamino)phenyl)-pyridin-4-yl]-imidazo[1,2-a]pyridine] |
| 80 °C (dec.) | c1ccc(-c2nc3ccccn3c2-c2ccnc(-c3ccc(CN4CCOCC4)cc3)c2)nc1 [Example 17, 3-[2-(4-(Morpholin-4-yl-methyl)-phenyl)-pyridin-4-yl]-2-pyridin-2-yl-imidazo[1,2-a]pyridine] |
| 189 °C | Fc1ccc(-c2nc3ccccn3c2-c2ccnc(-c3ccc(CN4CCOCC4)cc3)c2)cc1Cl [Example 18, 2-(3-Chloro-4-fluoro-phenyl)-3-[2-(4-(morpholin-4-yl-methyl)phenyl)-pyridin-4-yl]-imidazo[1,2-a]pyridine] |
| 155 °C | Fc1ccc(-c2nc3ccccn3c2-c2ccnc(-c3ccc(CN4CCCC4)cc3)c2)cc1F [Example 19, 2-(3,4-Difluoro-phenyl)-3-[2-(4-(pyrrolidin-1-yl-methyl)phenyl)-pyridin-4-yl]-imidazo[1,2-a]pyridine] |
| 205 °C | Fc1ccc(-c2nc3ccccn3c2-c2ccnc(-c3ccc(CN4CCOCC4)cc3)c2)cc1F [Example 20, 2-(3,4-Difluoro-phenyl)-3-[2-(4-(morpholin-1-yl-methyl)phenyl)-pyridin-4-yl]-imidazo[1,2-a]pyridine] |
| 157 °C | Cc1cccc(-c2nc3ccc(Cl)cn3c2-c2ccnc(-c3ccc(CN4CCOCC4)cc3)c2)n1 [Example 21, 6-Chloro-2-(6-methyl-pyridin-2-yl)-3-[2-(4-(morpholin-4-yl-methyl)phenyl)-pyridin-4-yl]-imidazo[1,2-a]pyridine] |
| 188 °C | Cc1ccn2c(-c3ccnc(-c4ccc(CN5CCOCC5)cc4)c3)c(-c3cccc(C)n3)nc2c1 [Example 22, 7-Methyl-2-(6-methyl-pyridin-2-yl)-3-[2-(4-(morpholin-4-yl-methyl)phenyl)-pyridin-4-yl]-imidazo[1,2-a]pyridine] |
| 134 °C | Cc1cccc(-c2nc3ccc(Cl)cn3c2-c2ccnc(-c3ccc(CN4CCCC4)cc3)c2)n1 [Example 23, 6-Chloro-2-(6-methyl-pyridin-2-yl)-3-[2-(4-(pyrrolidin-1-yl-methyl)phenyl)-pyridin-4-yl]-imidazo[1,2-a]pyridine] |
| 122 °C | Cc1cccc(-c2nc3c(C)cccn3c2-c2ccnc(-c3ccc(CN4CCOCC4)cc3)c2)n1 [Example 24, 8-Methyl-2-(6-methyl-pyridin-2-yl)-3-{2-[4-((morpholin-4-yl)methyl)phenyl]-pyridin-4-yl}-imidazo[1,2-a]pyridine] |
| 191 °C | O=C(c1ccc(-c2cc(-c3c(-c4cccc(F)n4)nc4ccccn34)ccn2)cc1)N1CCOCC1 [Example 33, 2-(6-Fluoro-pyridin-2-yl)-3-{2-[4-((morpholiny-4-yl)carbonyl)phenyl]-pyridin-4-yl}-imidazo[1,2-a]pyridine] |
| 298 °C | Clc1cccc(-c2nc3ccccn3c2-c2ccnc(-c3ccc(OCCN4CCCC4)cc3)c2)c1 [Example 37, 2-(3-Chloro-phenyl)-3-{2-[4-(2-(pyrrolidin-1-yl)ethoxy)phenyl]-pyridin-4-yl}-imidazo[1,2-a]pyridine] |
| 163 °C | Cc1ccn2c(-c3ccnc(-c4ccc(OCCN5CCCC5)cc4)c3)c(-c3cccc(C)n3)nc2c1 [Example 38, 7-Methyl-2-(6-methyl-pyridin-2-yl)-3-{2-[4-(2-(pyrrolidin-1-yl)ethoxy)phenyl]-pyridin-4-yl}-imidazo[1,2-a]pyridine] |

tested on: TGF-β signalling (PAI-1 promoter-luciferase in HepG2 cells); test: Cellular transcriptional assay (PAI-1 promoter luciferase reporter); assay type: cell-based; conditions: Homo sapiens, PAI-1 promoter firefly luciferase, rhTGFβ-1 1 ng/mL
Protocol: Assay 1 (Cellular Transcriptional Assay)
These plates were placed in a cell incubator.
Columns 11 and 12 were employed as controls.

| IC50 | SMILES |
| --- | --- |
| 125 nM | Cc1cccc(-c2nc3ccccn3c2-c2ccnc(-c3ccc(S(C)(=O)=O)cc3)c2)n1 [Example 6, 3-[2-(4-Methanesulfonyl-phenyl)-pyridin-4-yl]-2-(6-methyl-pyridin-2-yl)-imidazo[1,2-a]pyridine] |
| 127 nM | Cc1ccn2c(-c3ccnc(-c4ccc(OCCN5CCCC5)cc4)c3)c(-c3cccc(C)n3)nc2c1 [Example 38, 7-Methyl-2-(6-methyl-pyridin-2-yl)-3-{2-[4-(2-(pyrrolidin-1-yl)ethoxy)phenyl]-pyridin-4-yl}-imidazo[1,2-a]pyridine] |

molecular target: T1, recombinant GST-ALK5 (residues 198-503) (Homo sapiens, UniProt P36897); test: Alk5 fluorescence polarization assay; assay type: binding; conditions: rhodamine green-labelled ligand 1 nM, ALK5 10 nM, read-out: ALK5 receptor modulator activity (IC50)
T1 construct: assays using recombinant GST-ALK5 (residues 198-503)
T1 sequence (P36897 198-503): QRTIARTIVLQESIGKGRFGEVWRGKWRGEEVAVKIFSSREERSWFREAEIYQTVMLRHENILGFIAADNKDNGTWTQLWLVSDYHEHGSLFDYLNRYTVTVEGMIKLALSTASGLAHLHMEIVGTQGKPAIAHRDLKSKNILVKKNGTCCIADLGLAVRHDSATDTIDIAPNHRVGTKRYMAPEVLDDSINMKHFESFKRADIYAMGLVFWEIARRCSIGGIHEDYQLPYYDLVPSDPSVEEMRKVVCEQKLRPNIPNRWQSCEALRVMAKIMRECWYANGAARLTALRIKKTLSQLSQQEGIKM
Protocol: Assay 2 (Alk5 Fluorescence Polarization Assay)
Kinase inhibitor compounds conjugated to fluorophores, can be used as fluorescent ligands to monitor ATP competitive binding of other compounds to a given kinase. The increase in depolarization of plane polarized light, caused by release of the bound ligand into solution, is measured as a polarization/anisotropy value. This protocol details the use of a rhodamine green-labelled ligand for assays using recombinant GST-ALK5 (residues 198-503).
Assay buffer components: 62.5 mM Hepes pH 7.5 (Sigma H-4034), 1 mM DTT (Sigma D-0632), 12.5 mM MgCl2 (Sigma M-9272), 1.25 mM CHAPS (Sigma C-3023). […]
ALK5 was added to assay buffer containing the above components and 1 nM of the rhodamine green-labelled ligand so that the final ALK5 concentration was 10 nM based on active site titration of the enzyme. […] The plates were read immediately on a LJL Acquest fluorescence reader (Molecular Devices, serial number AQ1048) with excitation, emission, and dichroic filters of 485 nm, 530 nm, and 505 nm, respectively. The fluorescence polarization for each well was calculated by the Acquest reader and then imported into curve fitting software for construction of concentration response curves. The normalized response was determined relative to the high controls (1 μl DMSO in column 12, rows A-D) and the low controls (1 μl of control compound in column 12, rows E-H). […]

| IC50 | SMILES |
| --- | --- |
| 11 nM | Cc1cccc(-c2nc3ccccn3c2-c2ccnc(-c3ccc(S(C)(=O)=O)cc3)c2)n1 [Example 6, 3-[2-(4-Methanesulfonyl-phenyl)-pyridin-4-yl]-2-(6-methyl-pyridin-2-yl)-imidazo[1,2-a]pyridine] |
| 15 nM | Cc1ccn2c(-c3ccnc(-c4ccc(OCCN5CCCC5)cc4)c3)c(-c3cccc(C)n3)nc2c1 [Example 38, 7-Methyl-2-(6-methyl-pyridin-2-yl)-3-{2-[4-(2-(pyrrolidin-1-yl)ethoxy)phenyl]-pyridin-4-yl}-imidazo[1,2-a]pyridine] |
